pKi: −log10 of the molar value.
Tests used:
[1] = biological target: Alpha-1B adrenergic receptor (Homo sapiens) (UniProt P35368); conditions: Compound concentration 10.0 uM
[2] = biological target: Homeodomain-interacting protein kinase 1 (Homo sapiens) (UniProt Q86Z02); conditions: Compound concentration 1000.0 nM
[3] = biological target: C-C chemokine receptor type 1 (Homo sapiens, UniProt P32246); test: Ca flux
[4] = system: Epidermal growth factor receptor (Homo sapiens), P00533 [UNDEFINED MUTATION]; conditions: Compound concentration 1000.0 nM
[5] = biological target: Muscarinic acetylcholine receptor M2 (Homo sapiens) (UniProt P08172); conditions: Compound concentration 10.0 uM
[6] = biological target: Serine/threonine-protein kinase ULK2 (Homo sapiens) (UniProt Q8IYT8); conditions: Compound concentration 1000.0 nM
[7] = biological target: Cannabinoid receptor 1 (Homo sapiens) (UniProt P21554); test: CB1 Eurofins-Panlabs selectivity data (BI); conditions: Compound concentration 10.0 uM
[8] = biological target: Voltage-dependent L-type calcium channel subunit alpha-1C (diltiazem site) (Rattus norvegicus, UniProt P22002); test: CA+/DILSI/RA Eurofins-Panlabs selectivity data (BI); conditions: compound concentration 10 uM, read-out: % Ctrl
[9] = biological target: Alpha-1B adrenergic receptor (Rattus norvegicus) (UniProt P15823); test: ALPHA1B/R Eurofins-Panlabs selectivity data (BI); conditions: Compound concentration 10.0 uM
[10] = biological target: T1, 5-hydroxytryptamine receptor 3A (Homo sapiens) (UniProt P46098); test: 5HT3/HU Eurofins-Panlabs selectivity data (BI); conditions: Compound concentration 10.0 uM
T1 sequence (whole entry): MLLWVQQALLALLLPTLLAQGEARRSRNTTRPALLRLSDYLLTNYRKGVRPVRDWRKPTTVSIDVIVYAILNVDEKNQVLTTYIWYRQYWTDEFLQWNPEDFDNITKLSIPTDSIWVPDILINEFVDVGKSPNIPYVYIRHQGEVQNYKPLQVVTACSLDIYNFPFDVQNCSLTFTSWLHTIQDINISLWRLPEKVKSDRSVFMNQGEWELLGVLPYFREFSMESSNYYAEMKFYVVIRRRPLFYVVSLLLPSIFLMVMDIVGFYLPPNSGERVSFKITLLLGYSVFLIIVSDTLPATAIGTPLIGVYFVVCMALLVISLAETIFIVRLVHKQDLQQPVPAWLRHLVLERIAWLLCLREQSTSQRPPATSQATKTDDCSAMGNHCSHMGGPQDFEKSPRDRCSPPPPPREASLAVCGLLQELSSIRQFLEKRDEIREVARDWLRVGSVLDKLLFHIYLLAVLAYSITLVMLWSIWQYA

[11] = biological target: T2, C-C chemokine receptor type 1 (Homo sapiens) (UniProt P32246); test: CCR1 Eurofins-Panlabs selectivity data (BI)
T2 sequence (whole entry): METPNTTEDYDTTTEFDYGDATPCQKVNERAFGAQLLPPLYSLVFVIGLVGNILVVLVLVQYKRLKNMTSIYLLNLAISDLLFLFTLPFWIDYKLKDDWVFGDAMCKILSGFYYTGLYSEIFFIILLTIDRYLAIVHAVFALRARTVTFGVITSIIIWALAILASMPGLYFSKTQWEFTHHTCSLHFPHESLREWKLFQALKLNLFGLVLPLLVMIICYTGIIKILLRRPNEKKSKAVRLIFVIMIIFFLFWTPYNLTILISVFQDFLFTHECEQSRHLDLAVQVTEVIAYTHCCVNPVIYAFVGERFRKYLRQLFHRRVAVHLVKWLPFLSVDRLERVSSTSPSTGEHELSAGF

[12] = biological target: Muscarinic acetylcholine receptor M2 (Homo sapiens) (UniProt P08172); test: M2/HU Eurofins-Panlabs selectivity data (BI); conditions: Compound concentration 10.0 uM
[13] = biological target: Glutamate receptor ionotropic, NMDA 2A (Rattus norvegicus) (UniProt Q00959); test: NMDAPHSI/R Eurofins-Panlabs selectivity data (BI); conditions: Compound concentration 10.0 uM
[14] = biological target: Voltage-dependent L-type calcium channel subunit alpha-1C (DHP site) (Rattus norvegicus, UniProt P22002); test: CA+/DHPSI/RA Eurofins-Panlabs selectivity data (BI); conditions: compound concentration 10 uM, read-out: % Ctrl
[15] = biological target: Thyroid hormone receptor alpha (Rattus norvegicus) (UniProt P63059); test: THYROID HORM Eurofins-Panlabs selectivity data (BI); conditions: Compound concentration 10.0 uM
[16] = biological target: Gamma-aminobutyric acid type B receptor subunit 1 (Homo sapiens) (UniProt Q9UBS5); test: GABA_B1A Eurofins-Panlabs selectivity data (BI); conditions: Compound concentration 10.0 uM
[17] = biological target: Beta-1 adrenergic receptor (Homo sapiens, UniProt P08588); test: GPCRScan assay: inhibition of Beta1; parameters: radioligand conc. used [nm] 0.1 – 0.2, parental cells CHO Flp-In
[18] = biological target: Nicotinic acetylcholine receptor alpha-1/beta-1 (Homo sapiens) (UniProt P02708+P11230); test: NACH_BS_N/H Eurofins-Panlabs selectivity data (BI); format: protein-complex assay; conditions: Compound concentration 10.0 uM
[19] = biological target: Beta-2 adrenergic receptor (Homo sapiens) (UniProt P07550); test: BETA2/HU Eurofins-Panlabs selectivity data (BI); conditions: Compound concentration 10.0 uM
[20] = biological target: D(3) dopamine receptor (Homo sapiens) (UniProt P35462); conditions: Compound concentration 10.0 uM
[21] = biological target: Mu-type opioid receptor (Homo sapiens) (UniProt P35372); test: MU/HU Eurofins-Panlabs selectivity data (BI); conditions: Compound concentration 10.0 uM
[22] = biological target: 5-hydroxytryptamine receptor 2B (Homo sapiens) (UniProt P41595); test: 5HT2B/HU Eurofins-Panlabs selectivity data (BI); conditions: Compound concentration 10.0 uM
[23] = biological target: Cysteinyl leukotriene receptor 1 (Homo sapiens) (UniProt Q9Y271); test: CYSLT1_HS Eurofins-Panlabs selectivity data (BI); conditions: Compound concentration 10.0 uM
[24] = biological target: Alpha-1A adrenergic receptor (Rattus norvegicus) (UniProt P43140); test: ALPHA1A/R Eurofins-Panlabs selectivity data (BI); conditions: Compound concentration 10.0 uM
[25] = biological target: Adenosine receptor A2a (Homo sapiens) (UniProt P29274); test: A2A/HU Eurofins-Panlabs selectivity data (BI); conditions: Compound concentration 10.0 uM
[26] = biological target: T3, 5-hydroxytryptamine receptor 1A (Homo sapiens) (UniProt P08908); test: 5HT1A/HU Eurofins-Panlabs selectivity data (BI); conditions: Compound concentration 10.0 uM
T3 sequence (whole entry): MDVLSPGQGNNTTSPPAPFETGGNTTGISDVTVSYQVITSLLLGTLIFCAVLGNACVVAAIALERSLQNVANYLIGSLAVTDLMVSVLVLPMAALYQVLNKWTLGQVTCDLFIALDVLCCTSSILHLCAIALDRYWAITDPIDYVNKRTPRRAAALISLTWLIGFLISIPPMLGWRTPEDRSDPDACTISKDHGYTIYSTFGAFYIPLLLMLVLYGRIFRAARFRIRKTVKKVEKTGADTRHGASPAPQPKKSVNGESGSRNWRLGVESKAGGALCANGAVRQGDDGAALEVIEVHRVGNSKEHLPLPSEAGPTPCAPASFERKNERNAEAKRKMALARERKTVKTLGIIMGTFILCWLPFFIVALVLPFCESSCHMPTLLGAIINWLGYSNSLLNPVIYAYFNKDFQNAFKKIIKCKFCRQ

Chain of Muscarinic acetylcholine receptor M2 (Homo sapiens) (P08172 whole entry): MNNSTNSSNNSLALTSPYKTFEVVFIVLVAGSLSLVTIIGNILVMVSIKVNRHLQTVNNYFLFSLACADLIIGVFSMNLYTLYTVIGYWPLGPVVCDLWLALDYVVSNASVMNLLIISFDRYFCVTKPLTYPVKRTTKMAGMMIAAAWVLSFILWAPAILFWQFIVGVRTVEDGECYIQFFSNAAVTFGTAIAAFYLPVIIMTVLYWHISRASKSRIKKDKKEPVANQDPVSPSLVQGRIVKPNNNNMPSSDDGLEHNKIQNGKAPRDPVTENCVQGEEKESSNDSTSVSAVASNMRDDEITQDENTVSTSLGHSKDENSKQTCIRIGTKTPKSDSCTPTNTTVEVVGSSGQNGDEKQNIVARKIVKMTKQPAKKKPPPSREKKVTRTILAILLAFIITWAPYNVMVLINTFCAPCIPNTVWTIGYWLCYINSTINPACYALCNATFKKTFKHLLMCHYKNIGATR
Chain of Glutamate receptor ionotropic, NMDA 2A (Rattus norvegicus) (Q00959 23-1464 limits assumed): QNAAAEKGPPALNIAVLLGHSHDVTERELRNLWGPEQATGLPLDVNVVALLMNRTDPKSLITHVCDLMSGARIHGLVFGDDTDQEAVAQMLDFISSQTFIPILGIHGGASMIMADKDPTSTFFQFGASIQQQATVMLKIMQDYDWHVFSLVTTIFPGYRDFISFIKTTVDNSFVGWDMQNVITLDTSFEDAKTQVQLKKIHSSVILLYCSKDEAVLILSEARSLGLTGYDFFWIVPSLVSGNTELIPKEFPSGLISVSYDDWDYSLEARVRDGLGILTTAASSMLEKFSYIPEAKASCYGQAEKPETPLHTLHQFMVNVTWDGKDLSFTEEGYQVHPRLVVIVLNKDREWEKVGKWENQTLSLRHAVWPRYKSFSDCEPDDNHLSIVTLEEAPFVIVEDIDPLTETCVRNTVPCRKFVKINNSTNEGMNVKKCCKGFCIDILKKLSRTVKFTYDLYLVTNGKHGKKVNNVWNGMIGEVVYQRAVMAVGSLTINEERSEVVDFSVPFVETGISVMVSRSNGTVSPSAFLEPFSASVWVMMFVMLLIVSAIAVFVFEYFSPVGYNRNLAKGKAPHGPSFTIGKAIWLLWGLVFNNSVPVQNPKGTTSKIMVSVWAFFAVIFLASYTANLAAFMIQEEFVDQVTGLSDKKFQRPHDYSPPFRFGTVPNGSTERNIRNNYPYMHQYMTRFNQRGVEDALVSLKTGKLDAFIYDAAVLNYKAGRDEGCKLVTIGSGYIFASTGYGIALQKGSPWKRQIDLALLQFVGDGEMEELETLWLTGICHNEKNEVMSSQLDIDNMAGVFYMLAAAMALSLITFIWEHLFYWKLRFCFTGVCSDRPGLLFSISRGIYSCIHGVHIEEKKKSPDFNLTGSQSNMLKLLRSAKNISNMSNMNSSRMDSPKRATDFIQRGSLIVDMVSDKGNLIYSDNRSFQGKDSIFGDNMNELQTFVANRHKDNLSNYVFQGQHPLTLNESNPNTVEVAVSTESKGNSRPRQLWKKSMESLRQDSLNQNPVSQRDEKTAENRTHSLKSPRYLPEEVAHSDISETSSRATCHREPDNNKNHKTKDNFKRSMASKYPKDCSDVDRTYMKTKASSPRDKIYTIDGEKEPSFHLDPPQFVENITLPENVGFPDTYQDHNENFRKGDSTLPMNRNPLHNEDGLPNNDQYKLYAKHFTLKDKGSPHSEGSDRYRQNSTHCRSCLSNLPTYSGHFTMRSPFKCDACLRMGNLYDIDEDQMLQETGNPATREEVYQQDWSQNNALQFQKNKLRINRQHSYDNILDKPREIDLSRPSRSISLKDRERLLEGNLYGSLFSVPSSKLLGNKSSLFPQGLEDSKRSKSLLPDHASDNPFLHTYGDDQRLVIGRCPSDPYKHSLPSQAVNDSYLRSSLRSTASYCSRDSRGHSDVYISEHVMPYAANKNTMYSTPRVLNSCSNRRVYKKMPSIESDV
Chain of Mu-type opioid receptor (Homo sapiens) (P35372 whole entry): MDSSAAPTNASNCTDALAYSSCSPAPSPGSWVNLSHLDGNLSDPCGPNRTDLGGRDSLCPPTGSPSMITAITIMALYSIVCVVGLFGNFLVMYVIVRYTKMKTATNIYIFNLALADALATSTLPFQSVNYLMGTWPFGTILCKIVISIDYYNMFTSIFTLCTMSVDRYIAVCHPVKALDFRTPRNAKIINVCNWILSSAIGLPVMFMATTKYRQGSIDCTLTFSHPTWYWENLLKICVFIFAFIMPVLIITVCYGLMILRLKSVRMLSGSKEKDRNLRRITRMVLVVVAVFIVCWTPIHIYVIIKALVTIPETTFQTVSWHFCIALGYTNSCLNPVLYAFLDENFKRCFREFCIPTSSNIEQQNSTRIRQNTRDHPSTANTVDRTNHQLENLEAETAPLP
Chain of Beta-1 adrenergic receptor (P08588 whole entry): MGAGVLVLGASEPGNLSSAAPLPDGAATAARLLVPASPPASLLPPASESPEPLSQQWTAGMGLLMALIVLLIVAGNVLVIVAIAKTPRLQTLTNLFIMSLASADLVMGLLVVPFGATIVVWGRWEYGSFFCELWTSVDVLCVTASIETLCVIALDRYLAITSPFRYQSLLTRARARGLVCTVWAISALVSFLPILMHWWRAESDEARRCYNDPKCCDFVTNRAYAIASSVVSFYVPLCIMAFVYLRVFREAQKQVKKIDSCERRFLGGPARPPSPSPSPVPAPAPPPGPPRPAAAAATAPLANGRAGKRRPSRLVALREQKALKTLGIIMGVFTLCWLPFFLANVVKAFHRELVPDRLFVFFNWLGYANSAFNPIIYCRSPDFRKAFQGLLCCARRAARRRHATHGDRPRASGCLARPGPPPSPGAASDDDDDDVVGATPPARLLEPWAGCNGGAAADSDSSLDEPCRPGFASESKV
Chain of 5-hydroxytryptamine receptor 2B (Homo sapiens) (P41595 whole entry): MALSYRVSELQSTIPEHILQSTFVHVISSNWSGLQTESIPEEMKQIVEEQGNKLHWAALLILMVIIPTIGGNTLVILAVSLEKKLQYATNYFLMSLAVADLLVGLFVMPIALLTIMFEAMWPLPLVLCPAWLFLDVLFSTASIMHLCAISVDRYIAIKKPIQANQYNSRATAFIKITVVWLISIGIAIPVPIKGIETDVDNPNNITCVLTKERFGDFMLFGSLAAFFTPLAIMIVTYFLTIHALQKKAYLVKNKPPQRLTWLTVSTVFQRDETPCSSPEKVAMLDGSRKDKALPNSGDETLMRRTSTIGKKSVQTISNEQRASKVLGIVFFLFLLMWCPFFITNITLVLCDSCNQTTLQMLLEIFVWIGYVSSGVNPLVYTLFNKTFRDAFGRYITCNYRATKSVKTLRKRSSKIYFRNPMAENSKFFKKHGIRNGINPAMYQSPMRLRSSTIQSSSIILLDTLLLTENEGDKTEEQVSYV
Chain of Adenosine receptor A2a (Homo sapiens) (P29274 whole entry): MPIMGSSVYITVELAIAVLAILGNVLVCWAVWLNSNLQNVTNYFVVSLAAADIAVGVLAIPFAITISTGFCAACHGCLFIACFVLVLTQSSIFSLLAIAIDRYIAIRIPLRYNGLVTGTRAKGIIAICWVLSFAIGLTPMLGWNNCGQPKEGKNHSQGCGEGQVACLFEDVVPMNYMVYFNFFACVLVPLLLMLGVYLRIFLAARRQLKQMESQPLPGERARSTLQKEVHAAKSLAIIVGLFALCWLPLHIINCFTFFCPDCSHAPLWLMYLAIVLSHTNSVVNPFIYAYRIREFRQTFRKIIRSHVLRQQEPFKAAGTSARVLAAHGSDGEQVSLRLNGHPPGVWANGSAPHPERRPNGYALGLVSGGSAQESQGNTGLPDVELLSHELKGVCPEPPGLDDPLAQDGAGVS
Chain of Gamma-aminobutyric acid type B receptor subunit 1 (Homo sapiens) (Q9UBS5 whole entry): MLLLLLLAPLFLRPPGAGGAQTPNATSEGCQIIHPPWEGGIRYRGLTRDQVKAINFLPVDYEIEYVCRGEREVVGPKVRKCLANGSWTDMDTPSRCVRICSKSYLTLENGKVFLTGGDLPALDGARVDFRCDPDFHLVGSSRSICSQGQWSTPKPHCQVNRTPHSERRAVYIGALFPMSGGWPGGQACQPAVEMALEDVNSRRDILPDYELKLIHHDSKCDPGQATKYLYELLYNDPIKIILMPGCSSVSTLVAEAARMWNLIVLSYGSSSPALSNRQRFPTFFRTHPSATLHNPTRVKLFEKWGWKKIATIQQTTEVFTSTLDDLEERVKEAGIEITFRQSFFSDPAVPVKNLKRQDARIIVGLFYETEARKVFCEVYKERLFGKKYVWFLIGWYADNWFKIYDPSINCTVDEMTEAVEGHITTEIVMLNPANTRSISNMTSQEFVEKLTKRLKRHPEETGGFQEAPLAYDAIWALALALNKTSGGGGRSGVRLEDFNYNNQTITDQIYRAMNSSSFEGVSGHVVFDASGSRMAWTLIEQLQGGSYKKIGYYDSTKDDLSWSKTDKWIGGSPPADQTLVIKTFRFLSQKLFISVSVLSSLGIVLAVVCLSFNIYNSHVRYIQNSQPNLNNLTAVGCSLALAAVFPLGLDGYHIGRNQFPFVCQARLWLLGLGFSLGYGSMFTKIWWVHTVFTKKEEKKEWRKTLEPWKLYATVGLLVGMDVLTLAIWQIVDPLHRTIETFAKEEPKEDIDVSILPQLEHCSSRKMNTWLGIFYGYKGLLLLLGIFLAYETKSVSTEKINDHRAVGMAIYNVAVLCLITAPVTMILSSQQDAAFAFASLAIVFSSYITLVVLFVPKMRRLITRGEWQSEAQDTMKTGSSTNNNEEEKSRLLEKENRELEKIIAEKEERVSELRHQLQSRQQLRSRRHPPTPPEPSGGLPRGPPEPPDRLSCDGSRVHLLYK
Chain of Beta-2 adrenergic receptor (Homo sapiens) (P07550 whole entry, looked up): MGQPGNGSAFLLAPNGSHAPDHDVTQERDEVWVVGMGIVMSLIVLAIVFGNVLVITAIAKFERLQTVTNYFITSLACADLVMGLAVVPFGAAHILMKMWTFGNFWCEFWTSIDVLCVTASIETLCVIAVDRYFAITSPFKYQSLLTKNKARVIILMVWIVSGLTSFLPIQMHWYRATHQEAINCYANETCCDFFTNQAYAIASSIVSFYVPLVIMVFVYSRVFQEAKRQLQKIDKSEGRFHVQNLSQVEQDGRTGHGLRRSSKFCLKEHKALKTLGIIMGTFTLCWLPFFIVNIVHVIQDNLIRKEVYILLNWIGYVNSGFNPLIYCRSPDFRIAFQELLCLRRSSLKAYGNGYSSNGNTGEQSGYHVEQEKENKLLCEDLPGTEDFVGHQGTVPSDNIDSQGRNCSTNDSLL

CS(=O)(=O)NCC[C@H](NC(=O)c1cncc2c1cnn2-c1ccc(F)cc1)c1ccnc(S(C)(=O)=O)c1 [BI 9307]
inhibition [1]: 15.8% | residual activity [2]: 100% | IC50 [3]: > 3000 nM (not active) | residual activity [4]: 71% | inhibition [5]: 17.4% | residual activity [6]: 100%

CS(=O)(=O)c1cc(C2(NC(=O)c3cncc4c3cnn4-c3ccc(F)cc3)CC2)ccn1 [BI 639667]
residual activity [7]: 72% | activity at 10 µM [8]: 58% (not active) | residual activity [9]: 93% | residual activity [10]: 124% | residual activity ([11]; Compound concentration 0.03 uM): 72% | residual activity ([11]; Compound concentration 0.1 uM): 52% | residual activity ([11]; Compound concentration 0.3 uM): 33% | residual activity ([11]; Compound concentration 1.0 uM): 17% | residual activity ([11]; Compound concentration 3.0 uM): 7.5% | residual activity ([11]; Compound concentration 10.0 uM): 3% | residual activity [12]: 99% | residual activity [13]: 93% | activity at 10 µM [14]: 71% (not active) | residual activity [15]: 74% | residual activity [16]: 90% | pKi [17]: 5.72 | residual activity [18]: 100% | residual activity [19]: 96% | inhibition [20]: 17.6% | residual activity [21]: 86% | residual activity [22]: 93% | residual activity [23]: 87% | residual activity [24]: 88% | residual activity [25]: 31% | residual activity [26]: 89%

Source: ChEMBL document CHEMBL4507278 (2021)
